Here are results for 1 molecule from patent publication US20200297867A1, “SURFACE FUNCTIONALIZATION OF LIPOSOMES AND LIPOSOMAL SPHERICAL NUCLEIC ACIDS (SNAS)” (EXICURE,INC., priority 2016, published 2020).

One series addresses T1, hTLR4 (Homo sapiens, UniProt O00206+Q9Y6Y9).
T1 construct: expressed in transfected cells; host or cells: HEK huTLR4 (HEK hTLR4) cells
Put plainly: Experiment 4: activation of HEK hTLR4 cells pre- and post-sterile filtration, QuantiBlue. To be noted: post-sterile filtration through 0.22 μm PES filter; max 15 μM GLA, 1:3 serial dilution, 7 dilutions; 24 hours. It is filed as cell-based. As to the method:
FIG. 4. […] HEK hTLR4 cells were treated with 15 μM of GLA (for each compound tested) with a 1:3 serial dilution for 7 dilutions.
GLA (Avanti Polar Lipids) was resuspended in dimethylsulfoxide (DMSO) at 1 mg/mL. GLA in DMSO was mixed with an aqueous solution of liposomes (L-GLA) or PBS (GLA alone) such that the final DMSO concentration was 2%. DMSO is miscible in aqueous solutions, and allows GLA to condense on the surface of SNAs as the organic solution is diluted. Modulation of GLA functionalized to the surface of liposomes can be achieved by adjusting the ratio of GLA to liposome. The DMSO was removed from the liposomal solution by diafiltration using tangential-flow filtration (TFF) with a hollow fiber filter (750 kDa cut-off). These liposomes which have been surface functionalized with GLA (with a loading of 50 molecules/liposome) may then be further surface modified with other molecules. L-GLA or GLA alone was then sterile filtered through a 0.22 μm PES sterile syringe filter (VWR) to remove any non-functionalized GLA or GLA aggregates. […]
QuantiBlue detection media was purchased from Invivogen. […] After development of color using the standard curve as a reference, the plate was read using a fluorescence plate reader (Synergy 4) at an absorbance of 650 nm.

Series [1] in a line: Sterile filtration through 0.22 μm PES syringe filter. The series is classed as physicochemical. The conditions noted are these: 0.22 μm sterile filter; inferred from HEK hTLR4 activity after filtration. The protocol:
GLA (Avanti Polar Lipids) was resuspended in dimethylsulfoxide (DMSO) at 1 mg/mL. GLA in DMSO was mixed with an aqueous solution of liposomes (L-GLA) or PBS (GLA alone) such that the final DMSO concentration was 2%. DMSO is miscible in aqueous solutions, and allows GLA to condense on the surface of SNAs as the organic solution is diluted. Modulation of GLA functionalized to the surface of liposomes can be achieved by adjusting the ratio of GLA to liposome. The DMSO was removed from the liposomal solution by diafiltration using tangential-flow filtration (TFF) with a hollow fiber filter (750 kDa cut-off). These liposomes which have been surface functionalized with GLA (with a loading of 50 molecules/liposome) may then be further surface modified with other molecules. L-GLA or GLA alone was then sterile filtered through a 0.22 μm PES sterile syringe filter (VWR) to remove any non-functionalized GLA or GLA aggregates.
GLA alone was prepared using the same method used to prepare L-GLA but without the presence of liposomes. Free or unbound GLA will aggregate and cannot pass through a sterile filter.

Entries after “also recorded” stand apart in the source; their conditions may differ.

T1 sequence (O00206 24-839): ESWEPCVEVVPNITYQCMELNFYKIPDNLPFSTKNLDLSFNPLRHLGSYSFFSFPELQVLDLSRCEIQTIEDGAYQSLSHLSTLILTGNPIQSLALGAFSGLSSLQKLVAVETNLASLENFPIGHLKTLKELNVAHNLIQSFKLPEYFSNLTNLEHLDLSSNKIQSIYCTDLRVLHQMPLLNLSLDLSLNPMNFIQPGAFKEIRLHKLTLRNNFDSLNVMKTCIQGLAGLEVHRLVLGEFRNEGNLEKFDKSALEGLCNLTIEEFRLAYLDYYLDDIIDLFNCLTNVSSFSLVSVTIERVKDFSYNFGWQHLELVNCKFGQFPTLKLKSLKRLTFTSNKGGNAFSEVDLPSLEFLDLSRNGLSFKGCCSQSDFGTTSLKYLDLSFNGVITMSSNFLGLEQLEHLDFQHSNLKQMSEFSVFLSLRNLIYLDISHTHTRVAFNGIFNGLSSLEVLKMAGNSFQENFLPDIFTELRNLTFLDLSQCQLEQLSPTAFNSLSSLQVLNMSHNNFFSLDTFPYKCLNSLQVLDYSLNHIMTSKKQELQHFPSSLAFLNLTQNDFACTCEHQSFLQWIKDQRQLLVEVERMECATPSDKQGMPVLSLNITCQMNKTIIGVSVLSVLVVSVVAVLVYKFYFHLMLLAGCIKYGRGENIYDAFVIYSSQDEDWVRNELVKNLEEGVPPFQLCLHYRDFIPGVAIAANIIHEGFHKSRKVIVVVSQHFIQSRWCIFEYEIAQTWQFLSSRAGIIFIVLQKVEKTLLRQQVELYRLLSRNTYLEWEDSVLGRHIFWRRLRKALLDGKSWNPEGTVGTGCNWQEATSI
T1 sequence (Q9Y6Y9 17-160 limits assumed): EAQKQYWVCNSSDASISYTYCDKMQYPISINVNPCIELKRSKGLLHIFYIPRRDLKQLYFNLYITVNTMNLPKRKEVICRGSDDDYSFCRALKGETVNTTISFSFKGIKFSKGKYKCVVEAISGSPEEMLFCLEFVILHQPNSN

Take `CCCCCCCCCCCCCC(=O)O[C@H](CCCCCCCCCCC)CC(=O)N[C@H]1[C@H](OC[C@H]2O[C@H](O)[C@H](NC(=O)C[C@H](O)CCCCCCCCCCC)[C@@H](OC(=O)C[C@H](O)CCCCCCCCCCC)[C@@H]2O)O[C@H](CO)[C@@H](OP(=O)(O)O)[C@@H]1OC(=O)C[C@@H](CCCCCCCCCCC)OC(=O)CCCCCCCCCCCCC.N` [GLA alone, glycopyranoside lipid A]: the “activation of HEK hTLR4 cells” value at hTLR4 is listed as “failed to activate; also recorded: does not”. In addition, the “passage through sterile filter” value in series [1] was “removed by sterile filtration”.
